The test system of experiment [1] is T cells (mouse spleen cells). The experiment in a line: lymphocyte migration assay using transwell (CCL21). The experiment is classed as cell-based. The following applies: CCL21 300 ng/mL. Here is the method:
The influence of cholesterol 3-sulfate on the migration of T cells was examined. As a control, an experiment using T cells derived from a DOCK2 knockout mouse was also performed. More specifically, first, mouse spleen cells (1×10^7 cells/mL) were cultured for 1 hour at 37° C. in 0.5% BSA-containing RPMI-1640 (transwell medium) in the presence of cholesterol 3-sulfate at a predetermined concentration or in the presence of DMSO alone (control). The concentration of DMSO was adjusted such that the final concentration of DMSO became 0.2% in all samples. Then, a transwell medium containing chemokine CCL21 (300 ng/mL) and cholesterol 3-sulfate at a predetermined concentration was added to a 24-well plate, and then a transwell (with 5 μm pores, Corning) was set in the well so as to load the pre-cultured cells (1×10^6 cells/100 μL). Subsequently, the cells were incubated for 2 hours at 37° C., and the cells that moved to the lower chamber were collected and stained with PE-labeled anti Thy1.2-antibody (“53-2-1” model, BD Pharmingen). By dividing the number of Thy1.2-positive cells (T cells) in the lower chamber by the number of Thy1.2-positive cells (T cells) put into the transwell, the proportion of T cells having moved (migration of T cells (%)) was calculated. More specifically, first, mouse spleen cells (1×10^7 cells/mL) were cultured for 1 hour at 37° C. in 0.5% BSA-containing RPMI-1640 (transwell medium) in the presence of various steroid compounds at the concentration of 12.5 μM or in the presence of DMSO alone (control). The concentration of DMSO was adjusted such that the final concentration of DMSO became 0.2% in all samples. Then, by performing the transwell assay as described above, the effects of various steroid compounds on the migratory responses of T cells to CCL21 (300 ng/mL) were examined by comparison.

Experiment [2] has as its system inflammatory cells infiltrating into the conjunctiva. In words: ragweed pollen-induced conjunctivitis model in Sult2B1b gene knockout mice, application to the eyes. It is filed as in vivo, mouse. To be noted: applied into the eyes before and after topical challenge.
Procedure: An examination was performed on conjunctivitis models induced by sensitizing Sult2B1b gene hetero-type mice (+/−) and Sult2B1b gene knockout mice (−/−) with ragweed pollen and topically challenged with the same antigen at 10 and 12 days later. The eyeball section of each category of the mice was subjected to hematoxylin-eosin (HE) staining and observed using an optical microscope. Thereafter, the Sult2B1b gene knockout mice (−/−) were exposed to ragweed pollen, and cholesterol 3-sulfate was applied into the eyes of the mice before and after the topical challenge with ragweed pollen. […] As a control, a mouse for whom only a vehicle was applied into its eyes was used.
In experiment [3] the test system is inflammatory cells infiltrating into the anterior chamber of eye. In words: UV-induced photokeratitis in Sult2B1b gene knockout mice, eye drops. The following applies: eye drops before and after UV irradiation. The experiment is classed as in vivo, mouse. An excerpt:
As a result of analyzing UV-induced photokeratitis in Sult2B1b gene heterozygous mice (+/−) and Sult2B1b gene knockout mice (−/−), atrophy of the corneal epithelial layer was comparably observed in both mice. Therefore, the eyeball section of each of the mice was subjected to hematoxylin-eosin (HE) staining and observed using an optical microscope. Thereafter, cholesterol 3-sulfate was applied to the eyes of the Sult2B1b gene knockout mouse (−/−) before and after UV irradiation, and the total number of inflammatory cells infiltrating the anterior chamber of eye was counted. As a control, mouse for whom only a vehicle was applied to its eyes was used.

Experiment [4] deals with T1, DOCK2DHR-2 (lobe B and lobe C of the DHR-2 domain of DOCK2) (Homo sapiens, UniProt Q92608).
T1 construct: polypeptide fragments corresponding to a DHR-2 domain including the lobe B and the lobe C of DOCK2; Histidine-SUMO (N); made in house; host or cells: E. coli Arctic express DE3 (pET28a); Rac in E. coli BL21 DE3 (pGEX-6P-1)
T1 sequence (Q92608 1196-1622): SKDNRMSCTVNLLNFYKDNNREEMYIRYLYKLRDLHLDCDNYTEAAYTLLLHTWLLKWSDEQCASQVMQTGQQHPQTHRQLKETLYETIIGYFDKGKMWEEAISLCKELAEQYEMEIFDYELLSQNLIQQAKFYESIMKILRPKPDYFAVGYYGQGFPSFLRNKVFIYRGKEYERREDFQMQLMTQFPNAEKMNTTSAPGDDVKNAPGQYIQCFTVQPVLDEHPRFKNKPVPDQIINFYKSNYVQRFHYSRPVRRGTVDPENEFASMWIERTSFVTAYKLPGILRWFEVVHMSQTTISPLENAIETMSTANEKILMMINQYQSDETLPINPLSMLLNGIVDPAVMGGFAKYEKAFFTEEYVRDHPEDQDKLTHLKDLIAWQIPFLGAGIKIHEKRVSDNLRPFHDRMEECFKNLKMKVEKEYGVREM
The experiment in a line: in-vitro GEF assay, Rac activation by DOCK2 DHR-2 domain with various steroid compounds (Experimental Example 2). The experiment is classed as biochemical. The following applies: IC50 against the Rac activation by DOCK2DHR-2, Experimental Example 2, Table 1. Here is the method:
An examination was performed using various steroid compounds to test their effects on the Rac activation induced by proteins composed of the lobe B and the lobe C of the DHR-2 domain of DOCK2.
As the steroid compounds, cholesterol 3-sulfate (hereinafter, referred to as “C3S” in some cases), cholesterol, cholesterol 3-acetate (hereinafter, referred to as “C3A” in some cases), pregnenolone 3-sulfate (hereinafter, referred to as “PREG3S” in some cases), dehydroepiandrosterone (hereinafter, referred to as “DHEA” in some cases), dehydroepiandrosterone 3-sulfate (hereinafter, referred to as “DHEA3S” in some cases), estrone 3-sulfate (hereinafter, referred to as “Estrone3S” in some cases), estriol 3-sulfate (hereinafter, referred to as “Estriol3S” in some cases), and estradiol 3-sulfate (hereinafter, referred to as “Estradiol3S” in some cases) were used.
More specifically, a DOCK2-DHR-2 domain protein prepared by the same method as described above was incubated for 20 minutes at room temperature in the presence of various steroid compounds at a predetermined concentration dissolved in DMSO or in the presence of DMSO alone (control) under the shielded condition from light, thereby preparing a pretreated substance of GEF. The concentration of DMSO was adjusted such that it became 3% (1% in the final reaction solution) in all samples. Then, by in-vitro GEF assay in which Rac and Bodipy-FL-GTP prepared by the same method as described above were used, Rac activation by the DHR-2 domain was measured.

By IC50 is commonly meant the concentration that inhibits the measured activity by half. Lower therefore signals higher potency. As for `CC(C)CCC[C@@H](C)[C@H]1CC[C@H]2[C@@H]3CC=C4C[C@@H](OS(=O)(=O)O)CC[C@]4(C)[C@H]3CC[C@]12C` [C3S, cholesterol 3-sulfate], the “migration of T cells in response to CCL21” value in experiment [1] (6.25 μM) is reported as “inhibited to the level of T cells derived from DOCK2 knockout mouse”; in experiment [1] (12.5 μM, Experimental Example 6), “specifically inhibits the migration of T cells”; in experiment [1] (predetermined concentrations, Experimental Example 5) it was “markedly inhibited”. The “infiltration of inflammatory cells into the conjunctiva in response to ragweed pollen” value in experiment [2] is “further inhibited”. In experiment [3], the “UV irradiation-induced infiltration of inflammatory cells into the anterior chamber of eye” value was “inhibited”. The midpoint of inhibition in experiment [4], the IC50, lay at 2000 nM.

For the origin of these results see patent publication US12213984B2, “Immunoregulatory agent” (KYUSHU UNIVERSITY, NATIONAL UNIVERSITY CORPORATION, priority 2015, dated 2025).
